Tests used:
KRAS G12D = KRAS G12D (Homo sapiens, UniProt P01116, G12D); assay: GDP-GTP exchange assay (bodipy-GDP/GppNHp, SOS1), KRAS G12D; format: biochemical; conditions: KRAS_G12D exchange assay IC50, 4 h pre-incubation, value for the most potent isomer quoted
Experimental: (§1) The inhibitor potency of the exemplified compounds was determined in a fluorescence based guanine nucleotide exchange assay, which measures the exchange of bodipy-GDP (fluorescently labeled GDP) for GppNHp (Non-hydrolyzable GTP analog) to generate the active state of KRAS in the presence of SOS1 (guanine nucleotide exchange factor). Inhibitors were serially diluted in DMSO and a volume of 0.1 μL was transferred to the wells of a black low volume 384-well plate. 5 μL/well volume of bodipy-loaded KRAS G12D diluted to […] in assay buffer (25 mM Hepes pH 7.5, 50 mM NaCl, 10 mM mgCl2 and 0.01% Brij-35) was added to the plate and pre-incubated with inhibitor for 4 h at ambient temperature. Appropriate controls (enzyme with no inhibitor or with a G12D inhibitor) were included on the plate. The exchange was initiated by the addition of a 5 μL/well volume containing 1 mM GppNHp and 300 nM SOS1 in assay buffer. The 10 μL/well reaction concentration of the bodipy-loaded KRAS G12D, GppNHp, and SOS1 were 2.5 nM, 500 uM, and 150 nM, respectively. The reaction plates were incubated at ambient temperature for 2 h, a time estimated for complete GDP-GTP exchange in the absence of inhibitor. For the KRAS G12V mutant, similar guanine nucleotide exchange assays were used with 2.5 nM as final concentration for the bodipy loaded KRAS proteins and 3 h incubation after adding GppNHp-SOS1 mixture. A cyclic peptide described to selectively bind G12D mutant (Sakamoto et al., BBRC 484.3 (2017), 605-611) or internal compounds with confirmed binding were used as positive controls in the assay plates. Fluorescence intensities were measured on a PheraStar plate reader instrument (BMG Labtech) with excitation at 485 nm and emission at 520 nm.
(§2) Either GraphPad prism or Genedata Screener SmartFit was used to analyze the data. The IC50 values were derived by fitting the data to a four parameter logistic equation producing a sigmoidal dose-response curve with a variable Hill coefficient.
(§3) The symbol “t” indicates IC50≤100 nM, “††” indicates IC50>100 nM but ≤1 μM; and “†††” indicates IC50 is >1 μM but ≤5 μM, “††††” indicates IC50 is >5 μM but ≤10 μM. “NA” indicates IC50 not available.

KRAS G12V = KRAS G12V (Homo sapiens, UniProt P01116, G12V); assay: GDP-GTP exchange assay (bodipy-GDP/GppNHp, SOS1), KRAS G12V; format: biochemical; conditions: KRAS_G12V exchange assay IC50, value for the most potent isomer quoted; for IC50: read-out: G12V_exchange
Experimental: as §1, §2, §3

Chain of KRAS G12D (P01116 1-188 isoform P01116-2 G12D): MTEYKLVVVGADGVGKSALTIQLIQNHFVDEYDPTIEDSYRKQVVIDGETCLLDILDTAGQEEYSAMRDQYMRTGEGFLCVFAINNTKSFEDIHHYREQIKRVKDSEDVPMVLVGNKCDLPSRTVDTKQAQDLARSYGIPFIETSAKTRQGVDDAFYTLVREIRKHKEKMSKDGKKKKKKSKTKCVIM
Chain of KRAS G12V (P01116 1-188 isoform P01116-2 G12V): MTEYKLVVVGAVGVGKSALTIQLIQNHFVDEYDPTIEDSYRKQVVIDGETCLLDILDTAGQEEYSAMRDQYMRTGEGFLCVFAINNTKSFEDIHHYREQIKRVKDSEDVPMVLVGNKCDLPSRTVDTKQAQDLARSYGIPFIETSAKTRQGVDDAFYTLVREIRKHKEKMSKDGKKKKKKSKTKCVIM

Cc1nc2c(F)c(-c3cccc(Cl)c3Cl)c(CCC#N)cc2c2c1cc([C@@H](C)N1CCCN(c3ccnc(F)c3)C1=O)n2[C@H]1[C@H]2CN[C@@H]1C2 [Example 27, 3-(1-((1R,4R,5S)-2-azabicyclo[2.1.1]hexan-5-yl)-7-(2,3-dichlorophenyl)-6-fluoro-2-((R)-1-(3-(2-fluoropyridin-4-yl)-2-oxotetrahydropyrimidin-1(2H)-yl)ethyl)-4-methyl-1H-pyrrolo[3,2-c]quinolin-8-yl)propanenitrile]
G12D_exchange (KRAS G12D): † | G12V_exchange (KRAS G12V): †

CC(=O)NCc1cccc(N2CCCN([C@H](C)c3cc4c(C)nc5c(F)c(-c6cccc(Cl)c6Cl)c(CCC#N)cc5c4n3[C@H]3[C@H]4CN[C@@H]3C4)C2=O)c1 [Example 28, N-(3-(3-((1R)-1-(1-((1R,4R,5S)-2-azabicyclo[2.1.1]hexan-5-yl)-8-(2-cyanoethyl)-7-(2,3-dichlorophenyl)-6-fluoro-4-methyl-1H-pyrrolo[3,2-c]quinolin-2-yl)ethyl)-2-oxotetrahydropyrimidin-1(2H)-yl)benzyl)acetamide]
G12D_exchange (KRAS G12D): † | G12V_exchange (KRAS G12V): †

Cc1nc2c(F)c(-c3cccc(Cl)c3Cl)c(CCC#N)cc2c2c1cc([C@@H](C)N1CCCN(c3ccnc(C#N)c3)C1=O)n2[C@H]1[C@H]2CN[C@@H]1C2 [Example 29, 4-(3-((1R)-1-(1-((1R,4R,5S)-2-azabicyclo[2.1.1]hexan-5-yl)-8-(2-cyanoethyl)-7-(2,3-dichlorophenyl)-6-fluoro-4-methyl-1H-pyrrolo[3,2-c]quinolin-2-yl)ethyl)-2-oxotetrahydropyrimidin-1(2H)-yl)picolinonitrile]
G12D_exchange (KRAS G12D): † | IC50 (KRAS G12V): 100 to 1000 nM

Cc1nc2c(F)c(-c3cccc(Cl)c3Cl)c(CCC#N)cc2c2c1cc([C@@H](C)N1CCCN(c3ccnc(N(C)C)c3)C1=O)n2[C@H]1[C@H]2CN[C@@H]1C2 [Example 30, 3-(1-((1R,4R,5S)-2-azabicyclo[2.1.1]hexan-5-yl)-7-(2,3-dichlorophenyl)-2-((R)-1-(3-(2-(dimethylamino)pyridin-4-yl)-2-oxotetrahydropyrimidin-1(2H)-yl)ethyl)-6-fluoro-4-methyl-1H-pyrrolo[3,2-c]quinolin-8-yl)propanenitrile]
G12D_exchange (KRAS G12D): † | IC50 (KRAS G12V): 100 to 1000 nM

Cc1nc2c(F)c(-c3cccc(Cl)c3Cl)c(CCC#N)cc2c2c1cc([C@@H](C)N1CCCN(c3ccnc(C(F)F)c3)C1=O)n2[C@H]1[C@H]2CN[C@@H]1C2 [Example 31, 3-(1-((1R,4R,5S)-2-azabicyclo[2.1.1]hexan-5-yl)-7-(2,3-dichlorophenyl)-2-((R)-1-(3-(2-(difluoromethyl)pyridin-4-yl)-2-oxotetrahydropyrimidin-1(2H)-yl)ethyl)-6-fluoro-4-methyl-1H-pyrrolo[3,2-c]quinolin-8-yl)propanenitrile]
G12D_exchange (KRAS G12D): † | IC50 (KRAS G12V): 100 to 1000 nM

Cc1nc2c(F)c(-c3cccc(Cl)c3Cl)c(CCC#N)cc2c2c1cc([C@@H](C)N1CCCN(c3ccnc(N)c3)C1=O)n2[C@H]1[C@H]2CN[C@@H]1C2 [Example 32, 3-(2-((R)-1-(3-(2-aminopyridin-4-yl)-2-oxotetrahydropyrimidin-1(2H)-yl)ethyl)-1-((1R,4R,5S)-2-azabicyclo[2.1.1]hexan-5-yl)-7-(2,3-dichlorophenyl)-6-fluoro-4-methyl-1H-pyrrolo[3,2-c]quinolin-8-yl)propanenitrile]
G12D_exchange (KRAS G12D): † | G12V_exchange (KRAS G12V): †

Cc1nc2c(F)c(-c3cccc(Cl)c3Cl)c(CCC#N)cc2c2c1cc([C@@H](C)N1CCCN(c3ccncn3)C1=O)n2[C@H]1[C@H]2CN[C@@H]1C2 [Example 33, 3-(1-((1R,4R,5S)-2-azabicyclo[2.1.1]hexan-5-yl)-7-(2,3-dichlorophenyl)-6-fluoro-4-methyl-2-((R)-1-(2-oxo-3-(pyrimidin-4-yl)tetrahydropyrimidin-1(2H)-yl)ethyl)-1H-pyrrolo[3,2-c]quinolin-8-yl)propanenitrile]
G12D_exchange (KRAS G12D): † | IC50 (KRAS G12V): 100 to 1000 nM

Cc1nc2c(F)c(-c3cccc(Cl)c3Cl)c(CCC#N)cc2c2c1cc([C@@H](C)N1CCCN(c3cncnc3)C1=O)n2[C@H]1[C@H]2CN[C@@H]1C2 [Example 34, 3-(1-((1R,4R,5S)-2-azabicyclo[2.1.1]hexan-5-yl)-7-(2,3-dichlorophenyl)-6-fluoro-4-methyl-2-((R)-1-(2-oxo-3-(pyrimidin-5-yl)tetrahydropyrimidin-1(2H)-yl)ethyl)-1H-pyrrolo[3,2-c]quinolin-8-yl)propanenitrile]
G12D_exchange (KRAS G12D): † | G12V_exchange (KRAS G12V): †

Cc1nc2c(F)c(-c3cccc(Cl)c3Cl)c(CCC#N)cc2c2c1cc([C@@H](C)N1CCCN(c3ccn(C)c(=O)c3)C1=O)n2[C@H]1[C@H]2CN[C@@H]1C2 [Example 36, 3-(1-((1R,4R,5S)-2-azabicyclo[2.1.1]hexan-5-yl)-7-(2,3-dichlorophenyl)-6-fluoro-4-methyl-2-((R)-1-(3-(1-methyl-2-oxo-1,2-dihydropyridin-4-yl)-2-oxotetrahydropyrimidin-1(2H)-yl)ethyl)-1H-pyrrolo[3,2-c]quinolin-8-yl)propanenitrile]
IC50 (KRAS G12D; read-out: G12D_exchange): 100 to 1000 nM | IC50 (KRAS G12V): 1000 to 5000 nM

Cc1nc2c(F)c(-c3cccc(Cl)c3Cl)c(CCC#N)cc2c2c1cc([C@@H](C)N1CCCN(c3cc[nH]c(=O)c3)C1=O)n2[C@H]1[C@H]2CN[C@@H]1C2 [Example 37, 3-(1-((1R,4R,5S)-2-azabicyclo[2.1.1]hexan-5-yl)-7-(2,3-dichlorophenyl)-6-fluoro-4-methyl-2-((R)-1-(2-oxo-3-(2-oxo-1,2-dihydropyridin-4-yl)tetrahydropyrimidin-1(2H)-yl)ethyl)-1H-pyrrolo[3,2-c]quinolin-8-yl)propanenitrile]
G12D_exchange (KRAS G12D): † | IC50 (KRAS G12V): 100 to 1000 nM

Cc1nc2c(F)c(-c3cccc(Cl)c3Cl)c(CCC#N)cc2c2c1cc([C@@H](C)N1CCCN(c3ccnc4sccc34)C1=O)n2[C@H]1[C@H]2CN[C@@H]1C2 [Example 38, 3-(1-((1R,4R,5S)-2-azabicyclo[2.1.1]hexan-5-yl)-7-(2,3-dichlorophenyl)-6-fluoro-4-methyl-2-((R)-1-(2-oxo-3-(thieno[2,3-b]pyridin-4-yl)tetrahydropyrimidin-1(2H)-yl)ethyl)-1H-pyrrolo[3,2-c]quinolin-8-yl)propanenitrile]
G12D_exchange (KRAS G12D): † | G12V_exchange (KRAS G12V): †

CC(O)c1nc2c(F)c(-c3cccc(Cl)c3Cl)c(CCC#N)cc2c2c1cc([C@@H](C)N1CCCN(c3ccncc3)C1=O)n2[C@H]1[C@H]2CN[C@@H]1C2 (stereo partly drawn) [Example 39, 3-(1-((1R,4R,5S)-2-azabicyclo[2.1.1]hexan-5-yl)-7-(2,3-dichlorophenyl)-6-fluoro-4-(1-hydroxyethyl)-2-((R)-1-(2-oxo-3-(pyridin-4-yl)tetrahydropyrimidin-1(2H)-yl)ethyl)-1H-pyrrolo[3,2-c]quinolin-8-yl)propanenitrile]
G12D_exchange (KRAS G12D): † | G12V_exchange (KRAS G12V): †

Cc1nc2c(F)c(-c3cccc(Cl)c3Cl)c(CCC#N)cc2c2c1cc([C@@H](C)N1CCCN(c3ccc(F)cn3)C1=O)n2[C@H]1[C@H]2CN[C@@H]1C2 [Example 40, 3-(1-((1R,4R,5S)-2-azabicyclo[2.1.1]hexan-5-yl)-7-(2,3-dichlorophenyl)-6-fluoro-2-((R)-1-(3-(5-fluoropyridin-2-yl)-2-oxotetrahydropyrimidin-1(2H)-yl)ethyl)-4-methyl-1H-pyrrolo[3,2-c]quinolin-8-yl)propanenitrile]
G12D_exchange (KRAS G12D): † | G12V_exchange (KRAS G12V): †

Cc1nc2c(F)c(-c3cccc(Cl)c3Cl)c(CCC#N)cc2c2c1cc([C@@H](C)N1CCCN(c3cccc(F)n3)C1=O)n2[C@H]1[C@H]2CN[C@@H]1C2 [Example 41, 3-(1-((1R,4R,5S)-2-azabicyclo[2.1.1]hexan-5-yl)-7-(2,3-dichlorophenyl)-6-fluoro-2-((R)-1-(3-(6-fluoropyridin-2-yl)-2-oxotetrahydropyrimidin-1(2H)-yl)ethyl)-4-methyl-1H-pyrrolo[3,2-c]quinolin-8-yl)propanenitrile]
G12D_exchange (KRAS G12D): † | IC50 (KRAS G12V): 100 to 1000 nM
